Experimental data reported in patent publication EP0421419A2, “Tocotrienols in the treatment of hypercholesterolemia, hyperlipidemia and thromboembolic disorders” (Bristol-Myers Squibb Company, priority 1989, dated 1991).
Values after ≈ are worked out from the molar mass of the structure shown. Like-named read-outs stand apart in the source and are kept apart here.

Experiments:
[1] = tested on: Cholesterol Synthesis in Isolated Rat Hepatocytes; experiment: Rat hepatocyte cholesterol biosynthesis model (14C-acetate incorporation into digitonin-precipitable sterols); type: cell-based; settings: for inhibition at 250 µg/mL: read-out: % Inhibition at µg/ml conc: 250; for inhibition at 500 µg/mL: read-out: % Inhibition at µg/ml conc: 500; for IC50: read-out: IC₅₀; for inhibition at 210 µg/mL: 210 µg/ml (approx. 500 µM), 60 min 14C-acetate incorporation, 0.2% Tween-80
Description: Primary rat parenchymal hepatocytes were prepared from male Wistar rats (180-220 g) at mid-dark in the diurnal cycle by standard collagenase perfusion method as described previously. Ingebritsen et al. J. Biol. Chem., 254: 9986-9989, (1979). Aliquots of cells were suspended (100 mg in 2 ml) in Eagle's minimum essential medium (MEM) supplemented with 2% bovine albumin, and preincubated in a shaking water bath at about 37° under 95% O₂/5% CO₂ with compounds added as given in the data. […] Following a preincubation of about 15 to about 45 minutes as indicated, cholesterol synthesis in intact cells was assayed by 2-14C-acetate (1.8 mCi/mmol, 0.5 µCi/ml) incorporation for about 30 to about 60 minutes (previously shown to be time-linear) into total digitonin-precipitable sterols. […] Percent inhibition was calculated from the average of duplicates vs. triplicate vehicle controls conducted simultaneously.
The primary rat hepatocyte assay for cholesterol bio-synthesis inhibition was conducted as described in Example 2 except the preincubation was about 45 minutes and the 14C-acetate incorporation was about 30 minutes. The indicated compounds were purified from the same natural product source as the mixture used in Example 2. […] Two-component mixtures of the constituents separated from the tocotrienol mixture were tested under the conditions indentical to Table 2A.

HMG-CoA reductase = experiment: HepG2 cell culture model, HMG-CoA reductase suppression assay; type: cell-based, human; settings: 10 µM, about 4 hours, HepG2 cells
Description: HMG-CoA reductase suppression in HepG2 cells was conducted by growing cells in RPMT-1640 plus 10% FBS on 100 mm plates, and when cells reached approximately 75% confluency, inducing with LDS (as described above) for about 16 hours prior to assays. Compounds were added using dimethylsulfoxide vehicle (0.5% v/v, final) and after about 4 hours of incubation at 37°, cells were harvested by scraping. Cell pellets were rinsed and lysed by sonication in 1.7 ml cold 50 mM imidazole-HCL, pH 7.2, 50 mM NaCl, 10 mM EDTA, 10 mM EGTA, 5 mM DTT, and 40µM leupeptin). Lysates were centriguged at 150 x g and the supernatant was centrifuged at 100,000 x g in a Beckman airfuge to isolate the post-nuclear total membrane fraction. The membranes were resuspended in 50 mM imidazole-HCl, pH 7.2, 250 mM NaCl, 5 mM DTT, and 20µM leupeptin and used for the assay of HMG-CoA reductase activity by the radiochemical procedure as described previously by Parker et al., J. Biol. Chem., 264: 4877-4887, (1989). Values were normalized for protein content by the Lowry method as cited previously (ibid). HMG-CoA reductase percent suppression was calculated as the decrease in specific activity of HMG-CoA reductase for treated cells vs. controls receiving vehicle. Averages of duplicate cell determinations assayed in duplicate were taken.
(§1) The human hepatoma HepG2 cell culture model was employed to compare the intrinsic activities of the tocotrienols. HepG2 cells were incubated with the indicated compounds for about 4 hours at 10 µM. Cholestrol synthesis was assayed by 14C-acetate incorporation and HMG-CoA reductase suppression was assayed in the isolated microsomal fraction. Cholesterol synthesis inhibition was assayed by 14C-acetate incorporation after preincubation of HepG2 cells with the compounds for about 2 hours or about 4 hours (Example IV). […] As the data in Figure 1 indicate, gamma-tocotrienol has an even greater relative potency compared to alpha-tocotrienol in the HepG2 cell model than in rat hepatocytes. The IC50s from these studies are given in Table 3, in which it can be seen that the intrinsic potency of gamma-tocotrienol is over 30-fold greater than that of alpha-tocotrienol.
The mechanism of cholesterol synthesis inhibition by tocotrienols involves down regulation of the limiting enzyme of sterol synthesis, HMG-CoA reductase. […] The suppression of HMG-CoA reductase protein expression by gamma-tocotrienol and delta-tocotrienol in HepG2 cells and in rat liver has been confirmed by immunoassy using the Western blot technique (data not shown).

[2] = tested on: Cholesterol Synthesis in HepG2 Cells; experiment: HepG2 cell culture model, 14C-acetate incorporation assay; type: cell-based, human; settings: for % Inhibition 14C-Ac / inhibition at 10 µM: 10 µM, about 4 hours; for Rel. Potency: γ-Tocotrienol = 1.0; for IC50: read-out: IC₅₀; for inhibition at 10 µM: read-out: % Inhibition 14C-Ac
Description: HepG2 cells obtained from the American Type Culture Collection were routinely passaged in RPMI-1640 plus 10% fetal bovine serum (FBS) and were subcultured into 35 mm diameter wells for experiments. […] The LDS medium supplement was prepared according to Cham et al., J. Lipid Res., 17: 176-181, (1976). After about 16 hours in LDS containing media, test compounds were added in dimetthylsulfoxide vehicle (0.5% v/v final conc.) for the period of time indicated in the data (generally 4 hours). Cholesterol synthesis was then directly determined by the incorporation of 2-14C-acetate (1.8-3.0 mCi/mmol) into digitonin-precipitable sterols essentially as described for the rat hepatocyte methol above. Greater than 97% of the radiolabelled sterol isolated by this procedure was cholesterol as judged by HPLC. Percent inhibition was calculated from the average of duplicates or triplicates vs. controls receiving vehicle.
as §1

Hepatic HMGCoA Reductase = experiment: Acute rat HMGCoA reductase suppression model; type: in vivo; settings: four hours after administration; for Hepatic HMGCoA Reductase Activity (mean ± SEM): 195 µmol/kg (equivalent to 80 mg/kg Example 24) intragastric in olive oil, vehicle control 479 ± 88; for Hepatic HMGCoA Reductase Activity % of Control: 195 µmol/kg intragastric in olive oil
Description: Using an acute rate model for suppression of hepatic HMGCoA reductase, the effectiveness of three forms of d,l-γ-tocotrienol were compared in vivo. In this assay system, the test agents were administered by intragastric intubation as solutions dissolved in olive oil vehicle. Four hours after administration of test agents, rat liver HMGCoA reductase total activity levels were determined by standard techniques in this laboratory. […]

[3] = Pure gamma-tocotrienol capsules in hypercholesterolemic human subjects; type: in vivo; settings: capsules 50 mg/capsule, after 4 weeks of feeding; serum cholesterol levels 302.5 mg/dl
platelet aggregation = experiment: Rabbit biolaser ear chamber antithrombotic model; type: in vivo; settings: 100mg/kg oral
Description: The antithrombotic properties of gamma-tocotrienol were evaluated in a rabbit biolaser ear chamber model. Fasted rabbits were orally dosed with either vehicle or vehicle plus gamma-tocotrienol at 100mg/kg. An erythrocyte contained within a capillary, near the ear surface, is ruptured with a laser shot, thereby releasing platelet aggregating ADP. gamma-Tocotrienol inhibited platelet aggregation 37% at about 2 hours after oral dosing, 44% after about 4 hours and 25% after about 6 hours as measured by averaging the mean thrombus area over 10 trials.

Lipid Metabolism = experiment: Lipid metabolism in normocholesterolemic chickens fed compound in diet; type: in vivo; settings: CCD + 20 ppm per head (text: 50 ppm)
[4] = Rattus norvegicus, Hepatocyte, Expt. # 1, 45 min preincubation, 30 min incorporation
[5] = Rattus norvegicus, Hepatocyte, Expt. # 2, 45 min preincubation, 30 min incorporation
[6] = Rattus norvegicus, Hepatocyte, 15 min preincubation

For CC(C)=CCC/C(C)=C/CC/C(C)=C/CC[C@]1(C)CCc2c(C)c(O)c(C)c(C)c2O1 [d-α-tocotrienol, reference compound], which inhibition at 125 µg/mL ([1]; Rattus norvegicus, Hepatocyte, 125 µg/ml, Expt. # 2, 45 min preincubation, 30 min incorporation, read-out: % Inhibition at µg/ml conc: 125) is on record?
Its inhibition at 125 µg/mL is 8%.

What about the inhibition at 250 µg/mL [1, 4] of the same compound?
The inhibition at 250 µg/mL was 8%.

What about the inhibition at 250 µg/mL [1, 5] of the same compound?
Its inhibition at 250 µg/mL is 20%.

What about the inhibition at 500 µg/mL [1, 4] of the same compound?
The inhibition at 500 µg/mL was 12%.

And the inhibition at 500 µg/mL [1, 5]?
Its inhibition at 500 µg/mL is 33%.

What about the IC50 [1, 4] of the same compound?
Its IC50 is > 1000 µg/mL.

What about the IC50 [1, 5] of the same compound?
Its IC50 is 1300 µg/mL (≈ 3.06 mM).

Which “% Suppression HMG-CoA Reductase” value (HMG-CoA reductase) does the source give for γ-Tocopherol [reference compound] here?
The value was 0%.

What about the “% Inhibition 14C-Ac” value [2] of the same compound?
Its value is 3%.

With CC(C)=CCC/C(C)=C/CC/C(C)=C/CCC1(C)CCc2cc(OC(=O)c3cccnc3)c(C)c(C)c2O1 (racemic) [Ex. 34, 3,4-Dihydro-2,7,8-Trimethyl-2-(4,8,12-Trimethyl 3(E), 7(E),11-tridecatrienyl)-2H-1 Benzopyran-6-Yl-3-Pyridine Carboxylate] as the compound, how does the “Hepatic HMGCoA Reductase Activity (mean ± SEM)” value (Hepatic HMGCoA Reductase) read?
The value was 156 ± 21 mU/mg.

What about the “Hepatic HMGCoA Reductase Activity % of Control” value (Hepatic HMGCoA Reductase) of the same compound?
The value was 33%.

What does the source list for CC(C)=CCC/C(C)=C/CC/C(C)=C/CCC1(C)CCc2cc(O)c(C)c(C)c2O1 (stereo not shown) [γ-Tocotrienol]?
decrease in serum cholesterol levels [3]: 35%; times more active than alpha-tocotrienol ([1]; rat and chicken hepatocyte system): at least 5 times; inhibited platelet aggregation (platelet aggregation; about 2 hours after dosing, mean thrombus area over 10 trials): 37%; inhibited platelet aggregation (platelet aggregation; about 4 hours after dosing): 44%; inhibited platelet aggregation (platelet aggregation; about 6 hours after dosing): 25%; Rel. Potency ([2]; 2 hr. Incubation): 1.0; Rel. Potency ([2]; 4 hr. Incubation): 1.0; IC50 ([2]; Homo sapiens, HepG2, 2 hr. Incubation): 5.9 µM; IC50 ([2]; Homo sapiens, HepG2, 4 hr. Incubation): 2.8 µM; intrinsic potency greater than that of alpha-tocotrienol ([2]; from IC50s of Table 3): over 30 fold

With CC(=O)Oc1cc2c(c(C)c1C)OC(C)(CC/C=C(\C)CC/C=C(\C)CCC=C(C)C)CC2 (racemic) [Ex. 33, 3,4-Dihydro-2,7,8-Trimethyl-2-(4,8,12-Trimethyltrideca-3(E),7(E), 11-trienyl)-2H-1-Benzopyran-6-Yl Acetate] as the compound, how does the “Hepatic HMGCoA Reductase Activity (mean ± SEM)” value (Hepatic HMGCoA Reductase) read?
Its value is 236 ± 23 mU/mg.

And the “Hepatic HMGCoA Reductase Activity % of Control” value (Hepatic HMGCoA Reductase)?
The value was 49%.

What does the source list for CC(C)=CCC/C(C)=C/CC/C(C)=C/CCC1(C)CCc2cc(O)c(C)c(C)c2O1 (racemic) [Ex. 24, 3,4-dihydro-2,7,8-trimethyl-2-(4,8,12-trimethyltrideca-3(E),7(E),11-trienyl)-2H-1-benzopyran-6-ol]?
Serum Cholesterol (Lipid Metabolism; Table 6, synthetic compound, 4 weeks, control 158.8(±9.0)): 121.2(±2.2) mg/dl; HDL-Cholesterol [% of Control] (Lipid Metabolism; Table 6): 87.0%; LDL-Cholesterol [% of Control] (Lipid Metabolism; Table 6): 54.8%; Serum Cholesterol [% of Control] (Lipid Metabolism; Table 6): 76.3%; Serum Triglycerides [% of Control] (Lipid Metabolism; Table 6): 100.7%; HDL/LDL (Lipid Metabolism; Table 6, control 1.938): 3.080; LDL-Cholesterol (Lipid Metabolism; Table 6, control 52.8 (±1.1)): 28.9(±1.2) mg/dl; Serum Triglycerides (Lipid Metabolism; Table 6, control 63.4(±2.1)): 63.9(±1.6) mg/dl; HDL-Cholesterol (Lipid Metabolism; Table 6, control 102.3(±3.0)): 89.0(±2.9) mg/dl; % Suppression HMG-CoA Reductase (HMG-CoA reductase): 65%; Hepatic HMGCoA Reductase Activity (mean ± SEM) (Hepatic HMGCoA Reductase): 266 ± 24 mU/mg; Hepatic HMGCoA Reductase Activity % of Control (Hepatic HMGCoA Reductase): 56%; inhibition at 10 µM ([2]; Homo sapiens, HepG2): 75%

With α-Tocotrienol [reference compound] as the compound, how does the IC50 ([2]; 2 hr. Incubation) read?
Its IC50 is 380 µM.

What about the “Rel. Potency” value ([2]; 2 hr. Incubation) of the same compound?
Its value is 0.02.

What about the IC50 ([2]; 4 hr. Incubation) of the same compound?
Its IC50 is 94 µM.

And the “Rel. Potency” value ([2]; 4 hr. Incubation)?
Its value is 0.03.

Which results are given for CC(C)=CCC/C(C)=C/CC/C(C)=C/CCC1(C)CCc2c(C)c(O)c(C)c(C)c2O1 (racemic) [d,1-α-tocotrienol, 3,4-dihydro-2,5,7,8-tetramethyl-2-(4,8,12-trimethyltrideca-3(E),7(E),11-trienyl)-2H-1-benzopyran-6-ol, reference compound]?
inhibition at 41 µg/mL ([1]; Rattus norvegicus, Hepatocyte, 41 µg/ml (approx. 100 µM), 15 min preincubation, 60 min incorporation): 4%; inhibition at 210 µg/mL [1, 6]: 17%; % Suppression HMG-CoA Reductase (HMG-CoA reductase): 19%; inhibition at 10 µM ([2]; Homo sapiens, HepG2): 20%

With “3,4-dihydro-2-methyl-2-(4,8,12-trimethyltrideca-3(E),7(E),11-trienyl)-2H-1-benzopyran-6-ol [d,1-Tocotrienol]” as the compound, how does the “% Suppression HMG-CoA Reductase” value (HMG-CoA reductase) read?
Its value is 62%.

And the “% Inhibition 14C-Ac” value [2]?
The value was 69%.

Which IC₅₀ ([1]; Expt. # 1, 45 min preincubation, 30 min incorporation) does the source give for Cc1c(C)c2c(c(C)c1O)CC[C@@](C)(CCC[C@H](C)CCC[C@H](C)CCCC(C)C)O2 [d-α-tocopherol, reference compound] here?
Its IC₅₀ is “no inhib”.

And the inhibition at 210 µg/mL [1, 6]?
The inhibition at 210 µg/mL was 0%.

And the inhibition at 250 µg/mL [1, 4]?
The inhibition at 250 µg/mL was 0%.

What about the inhibition at 250 µg/mL [1, 5] of the same compound?
The inhibition at 250 µg/mL was 0%.

What about the inhibition at 500 µg/mL [1, 4] of the same compound?
The inhibition at 500 µg/mL was 2%.

What about the inhibition at 500 µg/mL [1, 5] of the same compound?
The inhibition at 500 µg/mL was 0%.
